Assay [1] addresses T1, Pyridoxine-5'-phosphate oxidase (Mus musculus) (UniProt Q91XF0).
T1 sequence (whole entry): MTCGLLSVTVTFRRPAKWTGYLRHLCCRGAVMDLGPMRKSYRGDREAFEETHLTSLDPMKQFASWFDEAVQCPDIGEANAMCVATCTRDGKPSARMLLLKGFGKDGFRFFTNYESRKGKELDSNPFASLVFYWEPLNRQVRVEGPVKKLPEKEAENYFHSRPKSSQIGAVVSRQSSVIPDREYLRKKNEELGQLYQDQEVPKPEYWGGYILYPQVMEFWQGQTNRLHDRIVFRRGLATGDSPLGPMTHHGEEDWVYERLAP
Description: Inhibition of pyridoxine phosphate oxidase in mouse TA3 cells assessed as inhibition of 1 x 10^-7 M pyridoxal-induced cell growth at 10^-4 M. Type of assay: cell-based.

Assay [2] deals with T1, Pyridoxine-5'-phosphate oxidase (Mus musculus). In words: Inhibition of pyridoxine phosphate oxidase in mouse TA3 cells assessed as inhibition of 1 x 10^-7 M pyridoxal-induced cell growth. The format is cell-based.
For assay [3] the target is unchanged. In words: Inhibition of pyridoxine phosphate oxidase in mouse TA3 cells assessed as inhibition of 10^-5 M pyridoxal-induced cell growth. Type of assay: cell-based.
In assay [4] the target is T2, Pyridoxine-5'-phosphate oxidase (Homo sapiens, UniProt Q9NVS9).
T2 sequence (Q9NVS9 whole entry): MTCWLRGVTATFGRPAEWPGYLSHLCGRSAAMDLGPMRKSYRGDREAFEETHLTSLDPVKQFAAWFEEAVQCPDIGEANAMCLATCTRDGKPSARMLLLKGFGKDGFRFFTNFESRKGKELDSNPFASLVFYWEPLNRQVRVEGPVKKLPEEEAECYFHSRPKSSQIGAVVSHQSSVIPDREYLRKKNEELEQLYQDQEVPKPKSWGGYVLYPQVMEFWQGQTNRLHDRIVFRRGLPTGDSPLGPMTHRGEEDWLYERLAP
In words: Non-competitive inhibition of pyridoxine phosphate oxidase (unknown origin) assessed as oxidation of pyridoxol 5'-phosphate by Lineweaver-Burk plot analysis.

In assay [5] the target is T3, Pyridoxal kinase (Homo sapiens, UniProt O00764).
T3 sequence (O00764 whole entry): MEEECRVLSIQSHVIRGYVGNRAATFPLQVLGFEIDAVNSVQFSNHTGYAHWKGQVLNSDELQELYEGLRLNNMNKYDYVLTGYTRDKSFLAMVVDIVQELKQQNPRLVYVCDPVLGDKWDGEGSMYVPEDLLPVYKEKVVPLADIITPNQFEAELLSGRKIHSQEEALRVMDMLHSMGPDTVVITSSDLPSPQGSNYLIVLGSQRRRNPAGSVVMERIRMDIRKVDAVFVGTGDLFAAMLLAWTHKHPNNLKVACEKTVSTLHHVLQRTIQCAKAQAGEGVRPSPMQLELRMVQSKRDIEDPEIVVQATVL
Description: Non-competitive inhibition of pyridoxal phosphokinase (unknown origin).

Assay [6] addresses T3, Pyridoxal kinase. Description: Competitive inhibition of pyridoxal phosphokinase (unknown origin).
Assay [7] deals with T4, Pyridoxine-5'-phosphate oxidase (Homo sapiens) (UniProt Q9NVS9).
T4 sequence (whole entry): T2 sequence (Q9NVS9 whole entry)
Description: Competitive inhibition of pyridoxine phosphate oxidase (unknown origin) assessed as oxidation of pyridoxol 5'-phosphate by Lineweaver-Burk plot analysis.

Active and inactive are the calls of the source. No cut-off for these calls is given here.

The Ki is the dissociation constant of the complex between target and ligand, obtained from inhibition or displacement.

With `CC(=O)c1c(CO)cnc(C)c1O`, the inhibition entry in assay [1] was “inactive”.

`C=C(Cl)c1c(CO)cnc(C)c1O`: the ID50 in assay [2] is 9.5 µM.

Regarding `Cc1ncc(CO)c(C)c1O`, the ID50 in assay [2] was 6.8 ×10⁻⁸ M. In assay [3], the “growth inhibition (GI)” value was “inactive”.

As to `C#Cc1c(COP(=O)(O)O)cnc(C)c1O`, in assay [4], the Ki was 0.55 µM. Also, the ID50 in assay [2] worked out at 3.8 µM.

As to `Cc1ncc(CO)c(/C=C/Br)c1O`, the ID50 in assay [2] stood at 1.2 ×10⁻⁵ M.

In turn, `C#Cc1c(CO)cnc(C)c1O` came in with a Ki on Pyridoxal kinase [5] of 125 µM. The figures for the ID50 in assay [2] and in assay [3] were 8 µM and 9 ×10⁻⁵ M, respectively.

`C=C/C=C/c1c(COCc2ccccc2)cnc(C)c1OCc1ccccc1`: the ID50 in assay [2] turned out to be 1.5 ×10⁻⁵ M.

At Pyridoxal kinase [6], `C=Cc1c(CO)cnc(C)c1O` registered a Ki of 22.5 µM. In addition, the ID50 in assay [2] came out at 0.0025 µM. Further, the inhibition result in assay [7] is “Active”. In assay [3], the “growth inhibition (GI)” value is “inactive”.

With `Cc1ncc(COCc2ccccc2)c(/C=C/Cl)c1OCc1ccccc1`, the ID50 in assay [2] amounted to 3 µM.

On to `CC/C=C/c1c(COCc2ccccc2)cnc(C)c1OCc1ccccc1`, for which the ID50 in assay [2] is 1.5 ×10⁻⁵ M.

These data come from ChEMBL document CHEMBL3272067, “4-Halovinyl- and 4-ethynyl-4-deformylpyridoxal derivatives and related analogues as potentially irreversible antagonists of vitamin B6” (J Med Chem, 1977).
